Assay results as given in patent US20260182575A1, “MOLECULES HAVING PESTICIDAL UTILITY AND INTERMEDIATES AND PROCESSES RELATED THERETO” (CORTEVA AGRISCIENCE LLC, priority 2022, published 2026).
Where “and” joins values, the source holds several entries; their conditions need not be identical. Equal entries are not always repeated.

How the values were obtained:
Assay type in all cases: in vivo
[1] = tested on: Sweet Potato Whitefly (Bemisia tabaci, BEMITA, SPW); assay: Bioassay 2: sweet potato whitefly, cotton seedling foliar spray; details: AI alone
[2] = tested on: Sweet Potato Whitefly (Bemisia tabaci, BEMITA, SPW); assay: as above; details: F1 alone
[3] = tested on: Beet Armyworm (Spodoptera exigua, LAPHEG, BAW); assay: Bioassay 7: beet armyworm, artificial diet, 96 well plate
[4] = tested on: Corn Earworm (Helicoverpa zea, HELIZE, CEW); assay: Bioassay 7: corn earworm, artificial diet, 96 well plate
[5] = tested on: Fall Armyworm (Spodoptera frugiperda, LAPHFR, FAW); assay: Bioassay 7: fall armyworm, artificial diet, 96 well plate
Method: The test solutions were tested against CEW, FAW, BAW, and SBL using the following procedure: an artificial lepidopteran diet (Multispecies Lepidopteran Diet, Southland Products) was distributed in 96 well plate. Twenty μL of test solution was pipetted onto a cell in the bioassay plate. […] Each treatment was replicated 5 times for each species. Approximately five first instar CEW, FAW, BAW, or SBL larva were placed on top of the diet in each cell and was contained with a clear perforated adhesive lid. Test trays were held at approximately 25° C. and ambient relative humidity prior to grading. After five days, the number of cells where all the larvae were dead were recorded as 100% and averaged across all replicates; then the percent control was measured using Abbott's correction formula (W. S. Abbott, J. Econ. Entomol. 18 (1925), pp. 265-267) as follows:
where X=No. of live larvae on solvent check and Y=No. of live larvae on treated diet. In Table 7 the “Expected % Control” was calculated using the method described in Colby S. R., Weeds, 1967, 15, 20-22. Bioassay 8: Western Corn Rootworm (Diabrotica virgifera virgifera, DIABVI, “WCR”)

[6] = tested on: Soybean Looper (Chrysodeixis includens, PSEPIN, SBL); assay: Bioassay 7: soybean looper, artificial diet, 96 well plate; details: CL; F1 alone at 0.000005 wt %
[7] = tested on: Western Corn Rootworm (Diabrotica virgifera virgifera, DIABVI, WCR); assay: Bioassay 8: western corn rootworm, soil drench, corn root protection; details: F1 alone, DIABVI (CRW), 10 mL soil drench, corn nodal root length after 13 days
Method: Corn seeds were planted in steam pasteurized soil filled greenhouse pots. Western corn rootworm Diabrotica virgifera virgifera eggs supplied from the Corteva Agriscience in Johnston, IA US, were suspended in a 0.08% agar solution added into the soil. Stock solutions of F1 and active ingredients were prepared at a concentration of either 250 or 500 ugai/10 mL for F1 and active ingredients at the ratios of (F1:AI) 1:0.004; 1:0.01; 1:0.02; 1:0.04; 1:0.08; 1:0.1; 1:0.15; 1:0.2; 1:0.4; 1:2; or 1:4, using a 1:1 solution of acetone:water as a diluent. A soil application of solutions were applied as a 10 mL drench over the soil. Plants were grown in the greenhouse for 13 days at 25 C after which the roots were removed from the soil, washed, and measured to determine the length of the median nodal roots. The measured lengths were compared to the infested and un-infested untreated checks to determine the mean percent control offered to protect the corn roots.

| Structure (SMILES) | Average % Control AI ([1]; Wt % AI 0.000001, 7-9 days) [%] | Average % Control AI ([1]; Wt % AI 0.00001, 7-9 days) [%] | Average % Control F1 ([2]; F1 0.1, 7-9 days after treatment) [%] | Average % Control F1 ([2]; F1 10, 7-9 days after treatment) | Average % Control F1 ([3]; F1 alone at 0.0000025 wt %) [%] | Average % Control F1 ([3]; F1 alone at 0.00001 wt %) [%] | Average % Control F1 ([4]; F1 alone at 0.00002 wt %) [%] | Average % Control F1 ([4]; F1 alone at 0.00004 wt %) | Average % Control F1 ([5]; F1 alone at 0.0000025 wt %) [%] | Average % Control F1 ([5]; F1 alone at 0.000005 wt %) [%] | Average % Control F1 [6] [%] | Average % Control F1 ([7]; UgActive F1 250) | Average % Control F1 ([7]; UgActive F1 500) [%] |
| --- | --- | --- | --- | --- | --- | --- | --- | --- | --- | --- | --- | --- | --- |
| CN1COCN(Cc2cnc(Cl)s2)/C1=N\[N+](=O)[O-] [Thiamethoxam] | 5.8 | 35.9 | – | – | – | – | – | – | – | – | – | – | – |
| C[C@]1(COC(=O)C2CC2)[C@@H]2C[C@H](O)[C@@]3(C)Oc4cc(-c5cccnc5)oc(=O)c4[C@H](O)[C@@H]3[C@@]2(C)CC[C@@H]1OC(=O)C1CC1 [Afidopyropen] | – | 0.0 | – | – | – | – | – | – | – | – | – | – | – |
| Cc1ccc(COCC(F)(F)F)c(N2C(=O)CS/C2=N\C(=O)Nc2ccc(-c3ncn(-c4ccc(OC(F)(F)F)cc4)n3)cc2F)c1 [F1] | – | – | 0.0 | 37.4% and 50.1% | 12.5 | 40.0 | 0.0 | 62.5% and 50.0% | 0.0 | 62.5 | 80.0 | 97.8% and 88.8% | 83.9 |
